Reference: a melting point compilation (Tetko et al.; mined from patent text by program, amines drawn as free bases though some values may be those of a salt)

melting point [°C] | Structure (SMILES)
94 to 95 | O=C(O)c1nc(-c2ccc(Cl)cc2Cl)c(-c2ccc(Br)cc2)s1
130 to 133 | CCc1ccc(S(=O)(=O)n2c(CCC(=O)O)cc3cc(Cl)ccc32)cc1
82 to 83 | CCCCCCCCCCCOc1cc(C(=O)O)ccc1CO
283 | CCC1=Nc2ccc(S(C)(=O)=O)cc2C(=O)C1
79 to 83 | Cc1c(C)c2c(c(C)c1NCc1ccccc1)OC(C)(C)C2=O
140 | CCOC(=O)c1cnc2c(cnn2Cc2ccncc2)c1O
180 to 182 | CCN(c1ccc(Cl)cc1C(N)=S)S(=O)(=O)c1ccc(C)cc1
195 to 196 | COCc1noc(-c2ncn3c2c(=O)n(C(C)C)c2ccccc23)n1
120 to 122 | NS(=O)(=O)c1ccco1
137 to 142 | O=C(NCCN1CCCCC1)c1ccc(=O)n(Cc2ccc(-c3ccccc3)cc2)c1
290 to 292 | COc1ccc(-c2c3c(cc4ccc(OC)cc24)C(=O)NC3)cc1
158 | COC(=O)c1cc(C(=O)c2c(C)c(N(C)C(=O)c3cccc(OC)c3)c3ccccn23)ccc1[N+](=O)[O-]
173 to 174 | Cc1ccc(S(=O)(=O)N(C)c2ccc(O)cc2)cc1[N+](=O)[O-]
156 to 171 | CC(=O)Nc1ccc(C(=O)NC(=O)N2CCC(Cc3ccc(F)cc3)CC2)cc1
145 | Cc1nc2ncnn2c(N2CCC(C)CC2)c1C1CCCC1
201 to 204 | O=C(NS(=O)(=O)C=Cc1ccccc1)N1CCCC1
98 to 100 | CC(C)(C)OC(=O)N1CCN(c2cccc3ccoc23)CC1
205 to 206 | Oc1c2c(nn1-c1ccccn1)CCc1cc(-c3ccc4c(c3)OCO4)ccc1-2
87 | CCOC(=O)C1=Cc2cc(Br)ccc2SC1
62 to 63 | COc1cc2cc(Br)c(C)cc2c(C(C)C)c1OC
203 | O=C(NCc1ccccc1)c1ccc(C=CC(=O)N2CCc3c([nH]c4ccccc34)C2c2ccc3c(c2)OCO3)cc1 (stereo not drawn)
> 330 | O=c1c2c[nH]c3c(c-2nn1-c1ccc(Cl)cc1)CSC3
130 to 135 | CN(C)CC1CCc2cc(OCc3ccc(NC(=O)Cc4ccccc4)cc3)ccc2C1 (stereo not drawn)
138 | CC(=O)N1C(=O)C(C(=O)c2ccco2)c2ccccc21 (stereo not drawn)

melting point [°C] | Structure (SMILES)
137 | Cc1cn2cccc(OCc3ccc(F)cc3)c2n1
147 to 151 | COc1ccc2cc(C(C)COC(=O)c3cc(O)c4c(c3)C(=O)c3cccc(O)c3C4=O)ccc2c1 (stereo not drawn)
62 to 64 | CCCCc1oc2ccccc2c1C(=O)c1nc(Br)c(-c2ccc(OC)cc2)o1
153 to 154 | CCOc1cc2c(C)c(CCOS(C)(=O)=O)c(=O)oc2cc1OC
146 to 147 | Cc1nn2ccccc2c1C1=NNC(=O)CC1C (stereo not drawn)
258 | c1ccc(Nc2ncnc3ncccc23)cc1
235 | O=C(Nc1ccc2ccc(Cl)nc2n1)C1=CSCS1
42 to 43 | CON(C)C(=O)c1ccc(-c2ccc(CN(C)C)cc2)cc1
137 to 145 | O=C1C[C@@H]2O[C@@H](CS(=O)(=O)Cc3ccccc3)CN12 (racemic)
166 to 168 | COC(=O)c1cccc2c1N=C(c1ccccc1Cl)CC2=O
72 to 73 | CCCN(CCC)[C@H]1COc2c(F)ccc(C(=O)NC)c2C1
124 to 127 | CN(C)c1cc(N2C(=O)C3=C(CCCC3)C2=O)ccc1Cl
131 to 133 | CCOC(=O)c1cc(C)n(-c2cccc(S(C)(=O)=O)c2)c1-c1ccccc1
139 to 140 | Cc1oc(-c2ccccc2)nc1COc1ccc(COc2nn(C)cc2CC(=O)O)cn1
127 | COCC1CN(C(=O)c2cc(OC)c(OC)c(OC)c2)CCN1C(=O)OC(C)(C)C (stereo not drawn)
203 to 204 | COCN(c1cccc2cc(C(N)=O)n(COC)c12)S(=O)(=O)c1cccs1
209 to 212 | Cc1ccc(Sc2ccc3c(c2)CC[C@H]2NC(=O)CC[C@]32C)cc1
117 | O=C(/C=C/c1cccc(S(=O)(=O)N2CCN(CC(c3ccccc3)c3ccccc3)CC2)c1)NO
44 to 47 | Cc1ccc(F)c([Si](C)(C)C)c1C(=O)N(C)C(C)(C)C
59.5 to 60 | CC(=O)c1c(N2CCCC2)nn2ccccc12
118 to 120 | CN(C)C1=NCc2ccc(Cl)cc2O1
265 to 270 | O=C1c2ccc([N+](=O)[O-])cc2C(=O)N1C1CCN(C2CCCCC2)CC1
241 to 242 | Cc1c(Cc2cc(Cl)cc(Cl)c2)c(C(=O)O)nn1CCO
103 to 104 | Cc1ccc(C(=O)C2(O)CCCCC2)cc1C

melting point [°C] | Structure (SMILES)
157 to 159 | O=C(O)C(Cl)(Cl)CCCCCCCCCCc1ccccc1
125 to 127 | O=[N+]([O-])c1ccc(CCS(=O)(=O)NCc2ccccc2)cc1
226 | C#Cc1cc(C)nc(C(=O)Nc2ccn(C)n2)c1
134 to 136 | CC(=O)N(Cc1ccc(Cl)cc1Cl)c1cncnc1
127 to 131 | CCCCCCCn1c(C)c(CC(=O)O)c2cc(OCc3ccc4ccccc4n3)ccc21
128 to 130 | Nc1nnc(CCCCCBr)s1
129 to 132 | S=C(Nc1ccccc1)N(Cc1ccc(Cl)cc1)C1CCCC1
108 to 110 | COc1cc(NS(C)(=O)=O)c(Oc2ccccc2)cc1C(C)=O
215 to 216 | Cc1nc(-c2ccc(Cl)cc2)c(CC(=O)O)o1
> 200 | Cn1c(=O)[nH]c(N2CCc3ccccc3CC2)c(C#N)c1=O
168 to 169 | Cc1cccc(-c2n[nH]cc2-c2ccc(F)c(-c3cn(C)cn3)c2)n1
179 to 181 | CCOC(=O)C1=C(C)NC(C)=C(C(=O)OCC)C1c1ccccc1/C=C/c1ccc(OC)cc1
161 to 163 | C[C@H](NC(=O)[C@@H](CC(=O)O)NC(=O)c1ccccc1)C(=O)N1CCC[C@H]1C(=O)O
132 to 133 | CCOP(=O)(/C=C/c1cn(-c2ccccc2)nc1NC)OCC
87 to 95 | Nc1ccc(S(=O)(=O)Nc2ccn(CC3CC3)c(=O)n2)cc1
> 250 | O=C(O)c1cc2cc(Cl)c(Cl)cc2nc1N[C@H](Cc1c[nH]c2ccccc12)C(=O)O
114 to 115 | COCCc1nnc(NC(=O)C(c2ccccc2)c2ccccc2)o1
186 to 187 | CCOCC1(C)CCCSc2cc(/C=C/c3ccc(C(=O)O)cc3)ccc21 (stereo not drawn)
134 to 135 | NC(=O)c1ccc(OCCNCC(O)COc2nccnc2Cl)cc1 (stereo not drawn)
149 to 151 | COc1nc(C)cnc1NS(=O)(=O)c1cccnc1-c1ccc(OC(C)C(=O)O)cc1 (stereo not drawn)
160 to 162 | CC(C)(C)N(NC(=O)c1ccco1)C(=O)c1ccccc1
191 to 194 | COc1cc2c(cc1OC)CCC(C(=O)O)=C2
122 | Clc1ccc2c(c1)N=C(c1ccncc1)c1ccccc1O2
68.5 to 69.5 | CCCS(=O)(=O)Oc1ccc(CO)c(Oc2ncc(C(F)(F)F)cc2Cl)c1

melting point [°C] | Structure (SMILES)
83.3 | Cc1cc(C)cc(C(=O)N2CCC(N3CCC(OC(=O)c4cc(Cl)cc(Cl)c4)CC3)CC2Cc2ccccc2)c1 (stereo not drawn)
98 to 100 | CC(Oc1ccc(-c2ccc(Cl)cc2Cl)cc1)C(O)CCc1cccnc1 (stereo not drawn)
122 to 124 | O=C(O)CCCCCCCCCCCCCCCCCCCCC(=O)ON1C(=O)CCC1=O
166 | Nc1cccc(-c2cc3ccccc3[nH]2)c1
129 to 130 | N[C@@H](CO)[C@@H](O)[C@H](O)[C@H](O)CO
155 to 158 | O=C(N[C@@H](CS)C(=O)O)C(Sc1nc2cc(Cl)ccc2s1)c1ccccc1 (stereo partly drawn)
140 to 142 | CN1CCC(N(C)S(=O)(=O)c2ccc(Nc3nc(Cl)cc(Nc4ccc(F)cc4)n3)cc2)CC1
188 to 190 | C#CCOC(=O)c1cccnc1C1=NC(C)(C(C)C)C(=O)N1 (stereo not drawn)
192 | CN1CCN(c2ccc(-c3[nH]nc4c3C(=O)c3c(NC(=O)NN(C)C)cccc3-4)cc2)CC1
117 | Cc1cc(C2=CCC(c3ccc(OCC4CO4)cc3)CC2)ccc1OCC1CO1 (stereo not drawn)
143 to 144 | COC(=O)c1ccccc1S(=O)(=O)NC(=Nc1nc(C)cc(OC)n1)SC
167 to 168 | COc1ccc2c(c1)c(C(C)=O)cn2C
145 to 148 | COc1c(Cl)ccc(-c2cc(N)c(Cl)c(C(=O)NOCC(C)C)n2)c1F
190 to 192 | COc1ccc(-c2cc3cc(F)c(F)cc3[nH]2)cc1NCc1cccs1
158 to 160 | CC(C)Oc1cccc(-n2c(NC(=O)Nc3cccc(C(=O)O)c3)nc3ccccc3c2=O)c1
230 to 233 | O=C(O)COc1ccc2c(-c3ccco3)noc2c1Cl
199 to 200 | COC(=O)c1cc(N)c(Oc2ccccc2)c(N2C(=O)CCC2=O)c1
189 to 190 | CN1CCC(C2(C(N)=O)Cc3ccc([N+](=O)[O-])cc3C2=O)CC1 (stereo not drawn)
98 to 100 | CC(C)(CF)C(O)C(c1ccc(Cl)cc1Cl)n1cncn1 (stereo not drawn)
184 to 186 | COC(=O)c1cc(=O)c(O)co1
229 to 230 | Nc1nnc(-c2cccc(F)c2F)c(N)n1
161 to 163 | O=C(O)c1ccc(NCCc2ccc(F)cc2)cc1
102 to 103 | C=C(C(=O)c1ccc(C(=O)OC)cc1)c1cc(OC)c(OC)c(-c2cccs2)c1
128 to 129 | O=c1cc(-c2ccccc2)oc2ccc(OCCCCCN3CCC(O)CC3)cc12

Structure (SMILES) | melting point [°C]
CC1CCC(=O)N1CC(=O)NCCN1C(C)CCCC1C (stereo not drawn) | 115 to 116
Cc1cccc2c1N(CC(=O)N1CC3CCC(CC3)C1)C(=O)C(NC(=O)Nc1cccc(C(=O)O)c1)N=C2c1ccccc1F (stereo not drawn) | 197 to 204
O=NCNC1=Nc2ccccc2N(c2ccccc2)C(=O)C1 | 139 to 140
Cc1ccccc1-n1c(CF)nc2ccc([N+](=O)[O-])cc2c1=O | 155 to 158
Cc1nnc2n1-c1sc(C(C)OC(=O)C=Cc3ccccc3)cc1C(c1ccccc1Cl)=NC2 (stereo not drawn) | 122 to 125
N#CCCCCn1nc(C(N)=O)c2ccccc21 | 182 to 185
NCC1(CC(=O)O)CCCCCC1 | 180
